Source: patent US6114334A, “Piperazine derivatives as therapeutic agents” (Knoll Aktiengesellschaft, priority 1995, dated 2000)

Key:
α1-adrenoceptors = assay: inhibition of 7-methoxy-[3H]prazosin binding to α1-adrenoceptors in vitro; parameters: species or system rat (male Charles River CD, whole cortical tissue); conditions: rat whole cortex, 30 min; for Ki: 7-methoxy-[3H]prazosin 0.1 nM, 30° C.
Outline: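 Male CD rat cortical membranes in 50 mM Tris-HCl pH 7.6 were incubated 30 min at 30 °C with 7-methoxy-[3H]prazosin (0.1 nM as added), with 5 μM phentolamine (as added) defining non-specific binding, then filtered and counted. Compounds were tested at 10^-6 M for % displacement or at 10^-11–10^-3 M for IC50, and Ki was derived from IC50, ligand concentration and KD.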

5-HT1A receptors = target: T1, 5-HT1A receptors (Rattus norvegicus, UniProt P19327); assay: inhibition of [3H]8-OH-DPAT binding to 5-HT1A receptors in vitro; parameters: species or system rat (male Sprague-Dawley, hippocampal tissue); conditions: rat hippocampus; for Ki: [3H]8-OH-DPAT 2 nM, 25° C., 30 min
T1 sequence (P19327 1-422): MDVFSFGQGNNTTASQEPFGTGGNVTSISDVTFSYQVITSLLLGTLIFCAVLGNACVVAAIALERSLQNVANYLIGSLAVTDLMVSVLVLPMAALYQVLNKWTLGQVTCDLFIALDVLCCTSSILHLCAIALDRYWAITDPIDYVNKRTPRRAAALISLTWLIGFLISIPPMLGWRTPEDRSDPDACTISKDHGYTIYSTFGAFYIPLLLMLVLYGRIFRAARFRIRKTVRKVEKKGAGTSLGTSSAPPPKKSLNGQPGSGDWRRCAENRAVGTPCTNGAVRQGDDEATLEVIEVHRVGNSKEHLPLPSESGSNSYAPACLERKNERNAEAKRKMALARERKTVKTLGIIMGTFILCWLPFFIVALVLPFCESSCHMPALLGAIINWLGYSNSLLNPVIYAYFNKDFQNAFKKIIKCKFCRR

D2 dopamine receptors = D2 dopamine receptors (Rattus norvegicus, UniProt P61169); assay: inhibition of tritiated (S)-sulpiride binding to D2 dopamine receptors in vitro; parameters: species or system rat (male Charles River CD, striatal tissue); conditions: rat striatum, tritiated (S)-sulpiride 1 nM, 4° C., 40 min
α2A-adrenoceptors = target: T2, α2A-adrenoceptors (Homo sapiens, UniProt P08913); assay: inhibition of tritiated RX 821002 binding to α2A-adrenoceptors in vitro; parameters: species or system human (cerebral cortex post-mortem); conditions: human cerebral cortex; for inhibition at 1 µM: 10^-6 M, [3H]RX 821002, read-out: % displacement at 10^-6 M, α2A; for Ki: [3H]RX 821002 0.2 nM, 0° C., 75 min
T2 construct: Human cerebral cortex obtained at post-mortem; from tissue; host or cells: human cerebral cortex, post-mortem
T2 sequence (P08913 1-465): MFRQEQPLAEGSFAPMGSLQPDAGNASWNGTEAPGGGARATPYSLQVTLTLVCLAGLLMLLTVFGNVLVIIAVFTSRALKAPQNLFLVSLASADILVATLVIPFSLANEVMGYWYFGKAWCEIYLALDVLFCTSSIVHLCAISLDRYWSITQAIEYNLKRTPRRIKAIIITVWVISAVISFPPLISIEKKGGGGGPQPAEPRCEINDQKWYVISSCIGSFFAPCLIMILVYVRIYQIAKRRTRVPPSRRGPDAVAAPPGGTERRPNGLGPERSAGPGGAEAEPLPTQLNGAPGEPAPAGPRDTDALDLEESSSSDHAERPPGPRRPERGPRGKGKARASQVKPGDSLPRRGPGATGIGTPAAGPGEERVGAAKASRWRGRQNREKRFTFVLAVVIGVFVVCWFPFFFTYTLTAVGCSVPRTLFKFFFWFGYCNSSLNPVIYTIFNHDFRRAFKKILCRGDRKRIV
Protocol: Human cerebral cortex obtained at post-mortem was homogenised in ice-cold 0.25M sucrose (1:30 w/v) and centrifuged at 1,000 g at 4° C. for 12 minutes. The supernatant was stored on ice and the pellet was rehomogenised in 0.25M sucrose (1:15 w/v) and centrifuged at 850 g at 4° C. for 12 minutes. Combined supernatants were diluted with 5 mM Tris-HCl (pH 7.5) containing 5 mM ethylenediamine tetraacetic acid (EDTA), readjusted to pH 7.5 (at 25° C.) with 1M sodium hydroxide to 1:80 w/v, and centrifuged at 11,000 g at 4° C. for 10 minutes. The resulting pellet was resuspended in 50 mM Tris-HCl (pH 7.5) containing 5.68 mM L-ascorbic acid and 0.5 mM EDTA, readjusted to pH 7.5 (at 25° C.) with 1M sodium hydroxide to 1:80 w/v, and centrifuged at 11,000 g for 10 minutes. The pellet was stored at -80° C. On the day of the assay the pellet was thawed, resuspended in 50 mM Tris-HCl (pH 7.5) containing 5.68 mM L-ascorbic acid and 5 mM EDTA to 1:80 w/v and centrifuged at 11,000 g for 10 minutes. The final pellet was resuspended in 50 mM Tris-HCl (pH 7.5) containing 5.68 mM L-ascorbic acid and 5 mM EDTA (equivalent to 25 mg wet weight of tissue/ml).
Aliquots (400 μl; equivalent to 10 mg wet weight of tissue/tube) of this suspension were added to tubes containing the ligand (50 μl; 0.2 nM) and distilled water (50 μl; total binding) or phentolamine (50 μl; 50 μM; non-specific binding) or test compound (50 μl; at a single concentration of 10^-6 M or at 10 concentrations ranging from 10^-11 -10^-3 M). The ligand was tritiated RX 821002 (2-(2-methoxy-1,4-[6,7(n)-^3 H]benzodioxan-2-yl)-2-imidazoline) and the mixture was incubated at 0° C. for 75 minutes before the incubation was terminated by rapid filtration.
The filters were washed with ice-cold Tris-HCl buffer and dried. The filters were punched out into vials, scintillation fluid added and radioactivity determined by liquid scintillation counting. The percentage displacement of specific binding of the tritiated ligand was calculated for the single concentration (10^-6 M) of test compound. Displacement curves were then produced for those compounds which displaced ≥50% of specific binding of the tritiated ligand at 10^-6 M using a range of concentrations of the compound. The concentration which gave 50% inhibition of specific binding (IC50) was obtained from the curve. The inhibition coefficient Ki was then calculated using the formula [formula] in which [ligand] is the concentration of the tritiated ligand used and KD is the equilibrium dissociation constant for the ligand.

α2D-adrenoceptors = target: T3, α2D-adrenoceptors (Rattus norvegicus, UniProt P22909); assay: inhibition of tritiated idazoxan binding to α2D-adrenoceptors in vitro; parameters: species or system rat (male Charles River CD, frontal cortical tissue); conditions: rat frontal cortex; for Ki: [3H]idazoxan 1 nM, 0° C., 75 min; for inhibition at 1 µM: 10^-6 M, [3H]idazoxan, read-out: % displacement at 10^-6 M, α2D
T3 sequence (P22909 1-465): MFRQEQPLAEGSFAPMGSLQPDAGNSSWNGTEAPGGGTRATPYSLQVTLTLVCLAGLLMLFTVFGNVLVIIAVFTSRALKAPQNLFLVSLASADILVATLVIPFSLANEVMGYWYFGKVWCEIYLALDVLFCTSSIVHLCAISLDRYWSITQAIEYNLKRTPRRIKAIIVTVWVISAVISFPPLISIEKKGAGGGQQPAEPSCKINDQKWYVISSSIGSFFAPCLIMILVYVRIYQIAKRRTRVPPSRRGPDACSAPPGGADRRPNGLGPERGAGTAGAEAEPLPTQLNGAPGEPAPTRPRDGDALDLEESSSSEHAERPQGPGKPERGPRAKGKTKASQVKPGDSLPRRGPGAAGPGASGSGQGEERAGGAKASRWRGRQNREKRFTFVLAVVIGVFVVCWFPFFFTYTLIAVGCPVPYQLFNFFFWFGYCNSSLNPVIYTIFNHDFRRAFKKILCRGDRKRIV

D2 dopamine receptors, sequence (P61169 whole entry): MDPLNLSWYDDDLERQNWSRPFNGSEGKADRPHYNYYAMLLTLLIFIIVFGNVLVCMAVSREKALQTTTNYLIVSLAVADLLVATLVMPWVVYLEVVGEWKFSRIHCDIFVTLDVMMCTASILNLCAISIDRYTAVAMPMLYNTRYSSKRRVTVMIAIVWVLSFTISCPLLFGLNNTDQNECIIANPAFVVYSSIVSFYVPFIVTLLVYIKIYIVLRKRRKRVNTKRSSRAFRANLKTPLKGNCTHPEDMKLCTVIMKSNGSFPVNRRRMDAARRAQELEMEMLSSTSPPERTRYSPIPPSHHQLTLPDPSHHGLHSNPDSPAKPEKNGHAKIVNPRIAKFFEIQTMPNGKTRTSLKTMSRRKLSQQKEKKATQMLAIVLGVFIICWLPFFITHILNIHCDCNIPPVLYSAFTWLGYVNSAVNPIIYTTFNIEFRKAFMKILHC

Compound	Ki (α1-adrenoceptors)	Ki (5-HT1A receptors)	Ki (D2 dopamine receptors)	inhibition at 1 µM (α2A-adrenoceptors)	Ki (α2D-adrenoceptors)	% displacement at 10^-6 M, α1 (α1-adrenoceptors; 10^-6 M, 7-methoxy-[3H]prazosin, 1 µM)	inhibition at 1 µM (5-HT1A receptors; 10^-6 M, [3H]8-OH-DPAT, read-out: % displacement at 10^-6 M, 5-HT1A)	inhibition at 1 µM (α2D-adrenoceptors)	Ki (α2A-adrenoceptors)
Nc1c(CN2CCN(c3cccc4c3OCCO4)CC2)c(C2CC2)nn1-c1ccccn1 [Example 16, 5-Amino-4-[4-(1,4-benzodioxan-5-yl)piperazin-1-ylmethyl]-3-cyclopropyl-1-(2-pyridyl)pyrazole]	35 nM	4.1 nM	85 nM	100%	9.7 nM	–	–	–	–
Nc1c(CN2CCN(c3cccc4c3OCCO4)CC2)c(C2CC2)nn1-c1ccc(Cl)cc1 [Example 20, 5-Amino-4-[4-(1,4-benzodioxan-5-yl)piperazin-1-ylmethyl]-1-(4-chlorophenyl)-3-cyclopropylpyrazole]	19 nM	61 nM	445 nM	89%	15 nM	–	–	–	–
Nc1c(CN2CCN(c3cccc4c3OCCO4)CC2)c(C2CCCC2)nn1-c1ccccc1 [Example 21, 5-Amino-4-[4-(1,4-benzodioxan-5-yl)piperazin-1-ylmethyl]-3-cyclopentyl-1-phenylpyrazole]	21 nM	58 nM	451 nM	89%	32 nM	–	–	–	–
CC(C)(C)c1nn(-c2ccccc2)c(N)c1CN1CCN(c2cccc3c2OCCO3)CC1 [Example 22, 5-Amino-4-[4-(1,4-benzodioxan-5-yl)piperazin-1-ylmethyl]-3-tert-butyl-1-phenylpyrazole]	> 500 nM	29 nM	> 500 nM	66%	> 500 nM	–	–	–	–
CC(C)Oc1ccccc1N1CCN(Cc2c(C3CC3)nn(-c3ccccc3)c2N)CC1 [Example 23, 5-Amino-3-cyclopropyl-4-[4-(2-isopropoxyphenyl)piperazin-1-ylmethyl]-1-phenylpyrazole]	17 nM	22 nM	109 nM	100%	1.7 nM	–	–	–	–
CC(C)(C)n1nc(C2CC2)c(CN2CCN(c3cccc4c3OCCO4)CC2)c1N [Example 24, 5-Amino-4-[4-(1,4-benzodioxan-5-yl)piperazin-1-ylmethyl]-1-tert-butyl-3-cyclopropylpyrazole]	177 nM	21 nM	422 nM	–	13 nM	–	–	–	39 nM
Nc1c(CN2CCN(c3cccc4c3OCCO4)CC2)c(C2CC2)nn1Cc1ccccc1 [Example 26, 5-Amino-4-[4-(1,4-benzodioxan-5-yl)piperazin-1-ylmethyl]-1-benzyl-3-cyclopropylpyrazole]	9.9 nM	15 nM	185 nM	100%	8.9 nM	–	–	–	–
CC(C)Oc1ccccc1N1CCN(Cc2c(C3CCC3)nn(C)c2N)CC1 [Example 28, 5-Amino-3-cyclobutyl-4-[4-(2-isopropoxyphenyl)piperazin-1-ylmethyl]-1-methylpyrazole]	27 nM	40 nM	25 nM	99%	–	–	–	93%	–

Now from value to compound:

Ki (α1-adrenoceptors)	Ki (5-HT1A receptors)	Ki (D2 dopamine receptors)	inhibition at 1 µM (α2A-adrenoceptors)	Ki (α2D-adrenoceptors)	% displacement at 10^-6 M, α1 (α1-adrenoceptors; 10^-6 M, 7-methoxy-[3H]prazosin, 1 µM)	inhibition at 1 µM (5-HT1A receptors; 10^-6 M, [3H]8-OH-DPAT, read-out: % displacement at 10^-6 M, 5-HT1A)	inhibition at 1 µM (α2D-adrenoceptors)	Ki (α2A-adrenoceptors)	Compound
57 nM	21 nM	> 500 nM	95%	156 nM	–	–	–	–	Cn1nc(-c2ccccc2)c(CN2CCN(c3cccc4c3OCCO4)CC2)c1N [Example 13, 5-Amino-4-[4-(1,4-benzodioxan-5-yl)piperazin-1-ylmethyl]-1-methyl-3-phenylpyrazole]
–	–	> 500 nM	99%	–	80%	74%	81%	–	Nc1c(CN2CCN(c3cccc(Cl)c3)CC2)c(C2CC2)nn1-c1ccccc1 [Example 14, 5-Amino-4-[4-(3-chlorophenyl)piperazin-1-ylmethyl]-3-cyclopropyl-1-phenylpyrazole]
27 nM	59 nM	> 500 nM	86%	61 nM	–	–	–	–	COc1ccc(-n2nc(C3CC3)c(CN3CCN(c4cccc5c4OCCO5)CC3)c2N)cc1 [Example 17, 5-Amino-4-[4-(1,4-benzodioxan-5-yl)piperazin-1-ylmethyl]-3-cyclopropyl-1-(4-methoxyphenyl)pyrazole]
38 nM	256 nM	> 500 nM	100%	4.9 nM	–	–	–	–	Cc1ccccc1N1CCN(Cc2c(C3CC3)nn(-c3ccccc3)c2N)CC1 [Example 19, 5-Amino-3-cyclopropyl-4-[4-(2-methylphenyl)piperazin-1-ylmethyl]-1-phenylpyrazole]
126 nM	15 nM	> 500 nM	–	35 nM	–	–	–	14 nM	Cn1nc(C2CC2)c(CN2CCN(c3cccc4c3OCCO4)CC2)c1N [Example 25, 5-Amino-4-[4-(1,4-benzodioxan-5-yl)piperazin-1-ylmethyl]-3-cyclopropyl-1-methylpyrazole]
7.1 nM	16 nM	> 500 nM	99%	4.9 nM	–	–	–	–	Nc1c(CN2CCN(c3cccc4ccoc34)CC2)c(C2CC2)nn1-c1ccccc1 [Example 27, 5-Amino-4-[4-(7-benzo[b]furanyl)piperazin-1-ylmethyl]-3-cyclopropyl-1-phenylpyrazole]
